# Data from patent publication US11345682B2, “Polymorph of HDAC6-selective inhibitor and application thereof” (CSTONE PHARMACEUTICALS (SUZHOU) CO., LTD., priority 2018, dated 2022).
# How the values were obtained:
# [1] = Solid stability test of the polymorph A (XRPD); assay type: physicochemical; settings: High temperature and high humidity (40° C., 75% RH; 60° C., 75% RH), 1 month
# [2] = Solid stability test of the polymorph A (XRPD); assay type: physicochemical
# Description: According to the “Guidelines for the Stability Test of Active Pharmaceutical Ingredients and Preparations” (Chinese Pharmacopoeia, 2015, Part IV, General Chapter 9001), the stability of the polymorph A of the compound of formula (I) was investigated under the conditions of high temperature (60° C., open), high humidity (room temperature/relative humidity of 92.5%, open), high temperature and high humidity (40° C., 75% RH; 60° C., 75% RH) and strong light (total illumination of 1.2×10^6 Lux·hr/near ultraviolet 200 w·hr/m^2, sealed).
# 15 mg of the polymorph A of the compound of formula (I) was weighed, placed on the bottom of a glass sample bottle, and spread into a thin layer. The sample placed under high temperature and high humidity was sealed with aluminum foil paper, and some small holes were pierced in the aluminum foil paper to ensure that the sample can fully contact with the ambient air; The samples placed under strong light conditions were sealed with screw caps. The samples placed under different conditions were sampled and tested (XRPD) on day 5 and day 10. The test results were compared with the initial test results on day 0.
# [3] = test system: human multiple myeloma cells MM.1S xenograft (CDX); assay: In vivo pharmacodynamic study in MM.1S xenograft (CDX) model
# Description: CB-17 SCID mice, female, 6 weeks to 8 weeks old, weight of about 17 grams to 20 grams. The mice were kept in a special pathogen-free environment and in a single ventilated cage (4 mice per cage). All cages, bedding and water were disinfected before use. All animals had free access to standard certified commercial laboratory food. A total of 64 mice purchased from Beijing Vital River Co., Ltd. were used for study. 0.2 mL of 5×10^6 MM.1S cells were subcutaneously inoculated on the right back of each mouse for tumor growth. The experiment was performed when the average tumor volume reached about 100 cubic millimeters to 150 cubic millimeters.
# In vivo selective experiments were performed on CB-17 SCID mice implanted subcutaneously with human multiple myeloma cells MM.1S xenograft (CDX). The polymorph A of the compound of formula (I) was formulated with a mixed solution of 5% of dimethyl sulfoxide and 95% of 10% hydroxypropyl-β-cyclodextrin into a formulation to be administered orally for 5 days and stopped for 2 days. Ixazomib was administered once on the first day and fourth day of each week, respectively. The tumor volume was measured with a two-dimensional caliper twice a week, and the volume was measured in cubic millimeters and calculated by the following formula: V=0.5 a*b^2, in which a and b were the long diameter and short diameter of the tumor, respectively. The anti-tumor efficacy was determined by dividing the average tumor increase volume of animals treated with the compound by the average tumor increase volume of untreated animals.
structure (smiles),measurement,setting,value
O=C(NO)c1ccc(CNC(=O)c2ccc(C3(c4ccc(F)cc4)CCCO3)cn2)cc1 (centres unmarked),Polymorph,[1],Polymorph A
same,Polymorph,"[2]; Day 0, initial (XRPD)",Polymorph A
same,Polymorph,"[2]; High humidity (room temperature/relative humidity of 92.5%, open), Day 5",Polymorph A
same,Polymorph,"[2]; High humidity (room temperature/relative humidity of 92.5%, open), Day 10",Polymorph A
same,Polymorph,"[2]; High temperature (60° C., open), Day 5",Polymorph A
same,Polymorph,"[2]; High temperature (60° C., open), Day 10",Polymorph A
same,Polymorph,"[2]; High temperature and high humidity (40° C., 75% RH; 60° C., 75% RH), Day 10",Polymorph A
same,Polymorph,"[2]; Strong light (5000 lx, sealed), Day 5",Polymorph A
same,Polymorph,"[2]; Strong light (5000 lx, sealed), Day 10",Polymorph A
same,Solid stability (conclusion),"[2]; high temperature, high humidity, high temperature and high humidity, and strong light",good stability
same,Stability (general statement),"[2]; light, heat and humidity, technical effects statement","stable, less affected by light, heat and humidity"
same,Tumor volume,"[3]; 75 mg/kg oral, administration for 5 days and drug withdrawal for 2 days, Day 0",134 mm^3
same,Tumor volume,"[3]; 75 mg/kg oral, administration for 5 days and drug withdrawal for 2 days, Day 3",165 mm^3
same,Tumor volume,"[3]; 75 mg/kg oral, administration for 5 days and drug withdrawal for 2 days, Day 5",319 mm^3
same,Tumor volume,"[3]; 75 mg/kg oral, administration for 5 days and drug withdrawal for 2 days, Day 7",466 mm^3
same,Tumor volume,"[3]; 75 mg/kg oral, administration for 5 days and drug withdrawal for 2 days, Day 10",753 mm^3
same,Tumor volume,"[3]; 75 mg/kg oral, administration for 5 days and drug withdrawal for 2 days, Day 12",1006 mm^3
same,Tumor volume,"[3]; 75 mg/kg oral, administration for 5 days and drug withdrawal for 2 days, Day 14",1532 mm^3
same,Efficacy in vivo (general statement),[3]; technical effects statement,good efficacy in vivo
"CC(C)C[C@H](NC(=O)CNC(=O)c1cc(Cl)ccc1Cl)B(O)O [Ixazomib, reference compound]",Tumor volume,"[3]; Ixazomib 4 mg/kg, twice a week, Day 0",134 mm^3
same,Tumor volume,"[3]; Ixazomib 4 mg/kg, twice a week, Day 3",157 mm^3
same,Tumor volume,"[3]; Ixazomib 4 mg/kg, twice a week, Day 5",193 mm^3
same,Tumor volume,"[3]; Ixazomib 4 mg/kg, twice a week, Day 7",331 mm^3
same,Tumor volume,"[3]; Ixazomib 4 mg/kg, twice a week, Day 10",634 mm^3
same,Tumor volume,"[3]; Ixazomib 4 mg/kg, twice a week, Day 12",835 mm^3
same,Tumor volume,"[3]; Ixazomib 4 mg/kg, twice a week, Day 14",1257 mm^3
